Data on 24 compounds can be found in patent US9499493B2, “2,4-pyrimidinediamine compounds and their uses” (Rigel Pharmaceuticals, Inc., priority 2002, dated 2016).

The subject of experiment [1] is cultured human mast cells (CHMC). Briefly: CHMC low cell density IgE activation: tryptase assay. The class given is cell-based. As to conditions: anti-IgE. The procedure, abridged:
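Low-density CHMC assay: donor-adjusted 1000-1500 cells/well, MT buffer, 1 hr 37° C preincubation; anti-IgE stimulus 30 min 37° C versus MT-only controls; supernatant tryptase by substrate, 30 min RT.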

Experiment [2] shares this test system. The experiment is described as follows: CHMC low cell density ionomycin activation: tryptase assay. The class given is cell-based.

The IC50 is the concentration at which inhibition is half-maximal. As to `COc1cccc(CNC(=O)COc2ccc(Nc3nc(Nc4cccc(O)c4)ncc3Br)cc2)c1` [R925843, 5-Bromo-N2-(3-hydroxyphenyl)-N4-[4-(N-3-methoxybenzylamino)carbonylmethyleneoxyphenyl]-2,4-pyrimidinediamine], the IC50 in experiment [1] and in experiment [2] was greater than 10 µM each time.
For the compound `CNC(=O)COc1ccc(Nc2ncc(C#N)c(Nc3cccc(O)c3)n2)cc1` [R925844, 5-Cyano-N4-(3-hydroxyphenyl)-N2-[4-(N-methylamino)carbonylmethyleneoxyphenyl]-2,4-pyrimidinediamine], the IC50 in experiment [1] is 5.1 µM; in experiment [2] it was greater than 10 µM.
For `N#Cc1cnc(Nc2cccc(O)c2)nc1Nc1ccc(OCC(=O)NCC2CC2)cc1` [R925845, 5-Cyano-N4-[4-(N-cyclopropylmethylamino)carbonylmethyleneoxyphenyl]-N2-(3-hydroxyphenyl)-2,4-pyrimidinediamine], in that order: 2.3 µM and greater than 10 µM.
For `N#Cc1cnc(Nc2ccc(OCC(=O)NCC(O)CO)cc2)nc1Nc1cccc(O)c1` (stereo not drawn) [R925846, 5-Cyano-N4-(3-hydroxyphenyl)-N2-[4-(N-2,3-dihydroxypropylamino)carbonylmethyleneoxyphenyl]-2,4-pyrimidinediamine], in that order: greater than 10 µM and greater than 10 µM.
With `CNC(=O)COc1ccc(Nc2nc(Nc3ccc4c(c3)OCCO4)ncc2Br)cc1` [R925851, 5-Bromo-N2-(3,4-ethylenedioxyphenyl)-N4-[4-(N-methylamino)carbonylmethyleneoxyphenyl]-2,4-pyrimidinediamine], the half-maximal inhibitory concentration (IC50) in experiment [1] is 0.925 µM; in experiment [2], greater than 10 µM.
For `CCCNC(=O)COc1ccc(Nc2ncc(C#N)c(Nc3ccc(OCC(=O)NCCC)cc3)n2)cc1` [R925853, N2,N4-Bis[4-(N-n-propylamino)carbonylmethyleneoxyphenyl]-5-cyano-2,4-pyrimidinediamine], in that order: greater than 10 µM and greater than 10 µM.
In the case of `N#Cc1cnc(Nc2ccc(OCC(=O)N3CCOCC3)cc2)nc1Nc1ccc(OCC(=O)N2CCOCC2)cc1` [R925854, N2,N4-Bis[4-(N-morphonlino)carbonylmethyleneoxyphenyl]-5-cyano-2,4-pyrimidinediamine], the half-inhibitory concentration (IC50) in experiment [1] and in experiment [2] was greater than 10 µM throughout.
With `N#Cc1cnc(Nc2ccc(OCC(=O)N3CCCCC3)cc2)nc1Nc1ccc(OCC(=O)N2CCCCC2)cc1` [R925855, N2,N4-Bis[4-(N-piperidino)carbonylmethyleneoxyphenyl]-5-cyano-2,4-pyrimidinediamine], the half-inhibitory concentration (IC50) in experiment [1] is 4.2 µM; in experiment [2], greater than 10 µM.
For `CCOC(=O)CNc1nc(Nc2ccc(OCC(=O)OCC)cc2)nc(C(=O)OCC)c1[N+](=O)[O-]` [R925858, 6-Ethoxycarbonyl-N4-(ethoxycarbonylmethyl)-N2-(4-ethoxycarbonylmethyleneoxyphenyl)-5-nitro-2,4-pyrimidinediamine], in that order: 8.05 µM and 7.3 µM.
For `N#Cc1cnc(Nc2ccc(OCC(=O)NCC3CC3)cc2)nc1Nc1ccc(OCC(=O)NCC2CC2)cc1` [R925859, N2,N4-Bis[4-(N-cyclopropylmethylamino)carbonylmethyleneoxyphenyl]-5-cyano-2,4-pyrimidinediamine], in that order: greater than 10 µM and greater than 10 µM.
For `CCCCNC(=O)COc1ccc(Nc2ncc(C#N)c(Nc3ccc(OCC(=O)NCCCC)cc3)n2)cc1` [R925860, N2,N4-Bis[4-(N-n-butylamino)carbonylmethyleneoxyphenyl]-5-cyano-2,4-pyrimidinediamine], in that order: greater than 10 µM and greater than 10 µM.
In the case of `CC(C)NC(=O)COc1ccc(Nc2ncc(C#N)c(Nc3ccc(OCC(=O)NC(C)C)cc3)n2)cc1` [R925861, N2,N4-Bis[4-(N-isopropylamino)carbonylmethyleneoxyphenyl]-5-cyano-2,4-pyrimidinediamine], the IC50 in experiment [1] and in experiment [2] was greater than 10 µM each time.
For `CCOC(=O)COc1ccc(Nc2ncc(C(F)(F)F)c(Nc3ccc(OCC(=O)OCC)cc3)n2)cc1` [R925862, N2,N4-Bis[4-(ethoxycarbonylmethyleneoxy)phenyl]-5-trifluoromethyl-2,4-pyrimidinediamine], the half-inhibitory concentration (IC50) was 0.7 µM in experiment [1] and greater than 10 µM in experiment [2].
In the case of `COC(=O)COc1cccc(Nc2ncc(F)c(Nc3cccc(OCC(=O)OC)c3)n2)c1` [R926255, N2,N4-Bis[(3-methoxycarbonylmethyleneoxy)phenyl]-5-fluoro-2,4-pyrimidinediamine], the IC50 in experiment [1] is 1.4 µM; in experiment [2], 4.5 µM.
As to `CCOC(=O)c1cnc(Nc2ccc3cn[nH]c3c2)nc1Nc1ccc2cn[nH]c2c1` [R926320, N2,N4-Bis(3-indazol-6-yl)-5-ethoxycarbonyl-2,4-pyrimidinediamine], the IC50 in experiment [1] and in experiment [2] was greater than 10 µM each time.
As for `CCOC(=O)c1cnc(Nc2cccc3cn[nH]c23)nc1Nc1cccc2cn[nH]c12` [R926321, N2,N4-Bis(3-indazol-7-yl)-5-ethoxycarbonyl-2,4-pyrimidinediamine], the IC50 in experiment [1] and in experiment [2] was greater than 10 µM in each case.
With `CCOC(=O)c1cnc(Nc2ccc3c(c2)NC(=O)CO3)nc1Nc1ccc2c(c1)NC(=O)CO2` [R926325, N2,N4-Bis[6-(1,4-benzoxazine-3-onyl)]-5-ethoxycarbonyl-2,4-pyrimidinediamine], the half-inhibitory concentration (IC50) in experiment [1] and in experiment [2] was greater than 10 µM throughout.
In the case of `Cc1ccc(Nc2ncc(F)c(Nc3ccc(C)c(O)c3)n2)cc1O` [R926341, N2,N4-Bis(-3-hydroxy-4-methylphenyl)-5-fluoro-2,4-pyrimidinediaminediamine], the values for the IC50 in experiment [1] and in experiment [2] were 0.875 µM and greater than 10 µM, respectively.
In the case of `COCCOc1ccc(Nc2ncc(F)c(Nc3ccc(OCCOC)cc3)n2)cc1` [R926342, N2,N4-Bis[4-(2-methoxyethyleneoxy)phenyl]-5-fluoro-2,4-pyrimidinediamine], the IC50 in experiment [1] is 10 µM; in experiment [2], greater than 10 µM.
For `COc1ccc(Nc2ncc(F)c(Nc3ccc(OC)c(-c4ccccc4)c3)n2)cc1-c1ccccc1` [R926399, N2,N4-Bis[(4-methoxy-3-phenyl)phenyl]-5-fluoro-2,4-pyrimidinediamine], in that order: greater than 10 µM and greater than 10 µM.
For `COc1ccc(-c2ccccc2)cc1Nc1ncc(F)c(Nc2cc(-c3ccccc3)ccc2OC)n1` [R926400, N2,N4-Bis[(2-methoxy-5-phenyl)phenyl]-5-fluoro-2,4-pyrimidinediamine], in that order: greater than 10 µM and greater than 10 µM.
As for `COc1cc(-c2ccccc2)c(C)cc1Nc1ncc(F)c(Nc2cc(C)c(-c3ccccc3)cc2OC)n1` [R926401, N2,N4-Bis[(2-methoxy-5-methyl-4-phenyl)phenyl]-5-fluoro-2,4-pyrimidinediamine], the 50% inhibitory concentration (IC50) in experiment [1] and in experiment [2] was greater than 10 µM in each case.
On to `Cc1ccc(-c2ccccc2)cc1Nc1ncc(F)c(Nc2cc(-c3ccccc3)ccc2C)n1` [R926402, N2,N4-Bis[(2-methyl-5-phenyl)phenyl]-5-fluoro-2,4-pyrimidinediamine], for which the IC50 in experiment [1] and in experiment [2] was greater than 10 µM each time.
As for `Fc1cnc(Nc2ccc3c(c2)OCCO3)nc1NNc1ccc2c(c1)OCO2` [R926406, N2-(3,4-Ethylenedioxyphenyl)-N4-(3,4-methylenedioxyphenylhydrazinyl)-5-fluoro-2-pyrimidineamine], the half-maximal inhibitory concentration (IC50) in experiment [1] and in experiment [2] was greater than 10 µM each time.
